Columns and labels:
FLT3-D835Y = target: T1, FLT3-D835Y (Homo sapiens, UniProt P36888, D835Y); assay: FLT3-D835Y biochemical kinase assay (AlphaScreen)
T1 construct: purchased Invitrogen PV3967
T1 sequence (P36888 27-993 D835Y): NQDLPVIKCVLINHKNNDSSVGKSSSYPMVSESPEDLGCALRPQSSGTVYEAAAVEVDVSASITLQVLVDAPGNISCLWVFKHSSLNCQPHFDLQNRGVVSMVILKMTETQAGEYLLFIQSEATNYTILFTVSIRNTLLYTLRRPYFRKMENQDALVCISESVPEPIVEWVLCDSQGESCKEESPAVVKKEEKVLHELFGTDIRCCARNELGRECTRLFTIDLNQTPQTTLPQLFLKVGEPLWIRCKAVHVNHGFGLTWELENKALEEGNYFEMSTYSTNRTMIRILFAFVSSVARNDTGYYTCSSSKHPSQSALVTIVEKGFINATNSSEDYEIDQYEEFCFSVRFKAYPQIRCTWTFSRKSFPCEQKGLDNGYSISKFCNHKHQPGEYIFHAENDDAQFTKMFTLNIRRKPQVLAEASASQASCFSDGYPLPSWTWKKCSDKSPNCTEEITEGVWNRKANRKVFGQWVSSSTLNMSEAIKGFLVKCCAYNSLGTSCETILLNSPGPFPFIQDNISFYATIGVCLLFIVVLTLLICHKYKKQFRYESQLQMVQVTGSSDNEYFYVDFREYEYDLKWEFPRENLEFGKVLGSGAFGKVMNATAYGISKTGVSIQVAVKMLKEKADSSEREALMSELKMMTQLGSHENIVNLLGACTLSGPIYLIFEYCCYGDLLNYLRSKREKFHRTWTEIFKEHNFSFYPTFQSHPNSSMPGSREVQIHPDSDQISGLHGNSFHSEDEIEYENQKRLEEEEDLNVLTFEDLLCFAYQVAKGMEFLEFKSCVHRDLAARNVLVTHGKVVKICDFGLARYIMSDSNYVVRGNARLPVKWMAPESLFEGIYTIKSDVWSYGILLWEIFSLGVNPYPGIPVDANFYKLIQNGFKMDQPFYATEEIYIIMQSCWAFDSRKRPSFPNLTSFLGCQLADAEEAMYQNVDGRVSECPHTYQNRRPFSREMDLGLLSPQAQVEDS
Summary of the method: (§1)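 First, recombinant FLT3 variant phosphorylates a biotinylated poly(Glu4-Tyr) peptide (30 nM) with ATP at 10 μM (D835Y) or 100 μM (ITD). Streptavidin donor beads are then added for 20 min at room temperature, followed by anti-phosphotyrosine PY20 acceptor beads for 60 min. Signal at 580 nm gives IC50.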

FLT3-ITD = target: T2, FLT3-ITD (Homo sapiens, UniProt P36888); assay: FLT3-ITD biochemical kinase assay (AlphaScreen)
T2 construct: FLT3-ITD; Invitrogen #PV6190
T2 sequence (P36888 1-993): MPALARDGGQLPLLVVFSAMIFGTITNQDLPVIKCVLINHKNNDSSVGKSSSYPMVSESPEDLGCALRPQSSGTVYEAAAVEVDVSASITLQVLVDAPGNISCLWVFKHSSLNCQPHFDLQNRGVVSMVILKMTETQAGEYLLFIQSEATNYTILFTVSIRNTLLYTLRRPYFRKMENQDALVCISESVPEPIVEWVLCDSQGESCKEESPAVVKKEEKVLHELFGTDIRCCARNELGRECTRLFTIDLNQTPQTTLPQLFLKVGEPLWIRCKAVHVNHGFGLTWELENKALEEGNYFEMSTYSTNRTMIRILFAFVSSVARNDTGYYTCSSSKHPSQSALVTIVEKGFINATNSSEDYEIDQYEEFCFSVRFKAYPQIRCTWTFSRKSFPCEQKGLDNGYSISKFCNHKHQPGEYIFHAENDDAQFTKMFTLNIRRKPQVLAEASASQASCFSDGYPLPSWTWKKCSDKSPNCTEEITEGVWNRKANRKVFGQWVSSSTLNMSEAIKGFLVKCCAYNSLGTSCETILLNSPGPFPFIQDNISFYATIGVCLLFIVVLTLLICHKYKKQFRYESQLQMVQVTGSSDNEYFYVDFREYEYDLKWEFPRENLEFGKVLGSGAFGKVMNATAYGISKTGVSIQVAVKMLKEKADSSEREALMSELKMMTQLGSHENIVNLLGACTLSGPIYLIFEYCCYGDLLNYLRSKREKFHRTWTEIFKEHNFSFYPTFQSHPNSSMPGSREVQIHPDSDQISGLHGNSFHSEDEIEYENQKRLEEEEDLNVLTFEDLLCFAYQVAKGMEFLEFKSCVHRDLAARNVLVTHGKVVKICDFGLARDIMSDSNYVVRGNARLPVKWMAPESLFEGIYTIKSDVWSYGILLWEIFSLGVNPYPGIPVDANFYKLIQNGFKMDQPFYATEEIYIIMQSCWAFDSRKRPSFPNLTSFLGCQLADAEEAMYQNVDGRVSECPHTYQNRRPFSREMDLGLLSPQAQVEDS
Summary of the method: as §1

c-Kit = c-Kit (Homo sapiens, UniProt P10721); assay: c-Kit biochemical assay (per US 2007/0032519)
Chain of c-Kit (P10721 26-976): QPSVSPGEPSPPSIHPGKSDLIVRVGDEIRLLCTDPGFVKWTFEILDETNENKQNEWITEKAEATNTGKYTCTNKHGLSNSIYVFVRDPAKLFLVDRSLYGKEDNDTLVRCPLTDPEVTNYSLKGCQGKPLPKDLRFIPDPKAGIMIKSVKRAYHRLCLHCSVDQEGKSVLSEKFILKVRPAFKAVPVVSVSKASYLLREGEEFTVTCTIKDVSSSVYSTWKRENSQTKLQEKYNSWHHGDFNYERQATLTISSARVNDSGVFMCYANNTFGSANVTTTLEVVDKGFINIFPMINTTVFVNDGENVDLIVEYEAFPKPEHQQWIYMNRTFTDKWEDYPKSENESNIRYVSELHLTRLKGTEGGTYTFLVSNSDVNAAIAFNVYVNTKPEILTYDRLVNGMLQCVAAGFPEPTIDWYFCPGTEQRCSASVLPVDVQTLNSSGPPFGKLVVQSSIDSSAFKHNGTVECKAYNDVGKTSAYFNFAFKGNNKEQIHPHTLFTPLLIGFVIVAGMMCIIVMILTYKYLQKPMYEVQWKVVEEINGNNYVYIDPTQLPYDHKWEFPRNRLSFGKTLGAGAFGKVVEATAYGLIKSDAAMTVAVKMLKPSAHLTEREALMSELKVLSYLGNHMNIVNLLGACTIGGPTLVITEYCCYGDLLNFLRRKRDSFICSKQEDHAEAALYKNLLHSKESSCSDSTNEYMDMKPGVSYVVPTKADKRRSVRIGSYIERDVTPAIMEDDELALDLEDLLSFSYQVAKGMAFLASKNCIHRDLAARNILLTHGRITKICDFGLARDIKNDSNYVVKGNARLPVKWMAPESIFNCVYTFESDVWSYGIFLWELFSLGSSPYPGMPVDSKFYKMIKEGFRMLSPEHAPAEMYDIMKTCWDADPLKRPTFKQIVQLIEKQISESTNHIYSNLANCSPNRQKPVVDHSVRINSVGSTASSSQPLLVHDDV
Summary of the method: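 Biochemical kinase inhibition run per US 2007/0032519; values reported as binned IC50 ranges (0.0001–1 μM, 1–10 μM, 10–200 μM).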

| IC50 (FLT3-D835Y) | IC50 (FLT3-ITD) | IC50 (c-Kit) | Structure (SMILES) |
| --- | --- | --- | --- |
| 0.0001 to 1 µM | 0.0001 to 1 µM | 1 to 10 µM | Clc1cnc2[nH]cc(-c3ccc4nc[nH]c4c3)c2c1 [P-035, 3-(3H-benzimidazol-5-yl)-5-chloro-1H-pyrrolo[2,3-b]pyridine] |
| 0.0001 to 1 µM | 0.0001 to 1 µM | 1 to 10 µM | COc1ccc(-c2cnc3[nH]cc(-c4ccc5ncn(C)c5c4)c3n2)cn1 [P-041, 2-(6-methoxy-3-pyridyl)-7-(3-methylbenzimidazol-5-yl)-5H-pyrrolo[2,3-b]pyrazine] |
| 0.0001 to 1 µM | 0.0001 to 1 µM | 1 to 10 µM | COc1ccc(-c2cnc3[nH]cc(-c4ccc5[nH]cnc5c4)c3c2)cn1 [P-024, 3-(1H-benzimidazol-5-yl)-5-(6-methoxy-3-pyridyl)-1H-pyrrolo[2,3-b]pyridine] |
| 0.0001 to 1 µM | 0.0001 to 1 µM | 10 to 200 µM | COc1cc(-c2cnc3[nH]cc(-c4ccc5ncn(C)c5c4)c3c2)cc(OC)n1 [P-123, 5-(2,6-dimethoxy-4-pyridyl)-3-(3-methylbenzimidazol-5-yl)-1H-pyrrolo[2,3-b]pyridine] |
| 0.0001 to 1 µM | 0.0001 to 1 µM | 1 to 10 µM | COc1cc(-c2cnc3[nH]cc(-c4ccc5ncn(C)c5c4)c3c2)ccc1C#N [P-117, 2-methoxy-4-[3-(3-methylbenzimidazol-5-yl)-1H-pyrrolo[2,3-b]pyridin-5-yl]benzonitrile] |
| 0.0001 to 1 µM | 0.0001 to 1 µM | 0.0001 to 1 µM | c1nc2cc(-c3c[nH]c4ncc(-c5cnc(C6CC6)nc5)cc34)ccc2[nH]1 [P-027, 3-(1H-benzimidazol-5-yl)-5-(2-cyclopropylpyrimidin-5-yl)-1H-pyrrolo[2,3-b]pyridine] |
| 0.0001 to 1 µM | 0.0001 to 1 µM | 1 to 10 µM | COc1cnc2[nH]cc(-c3cnc4[nH]cnc4c3)c2c1 [P-052, 6-(5-methoxy-1H-pyrrolo[2,3-b]pyridin-3-yl)-3H-imidazo[4,5-b]pyridine] |
| 1 to 10 µM | 0.0001 to 1 µM | 1 to 10 µM | c1nc2cc(-c3c[nH]c4ncc(OCC5CC5)cc34)ccc2[nH]1 [P-007, 3-(1H-benzimidazol-5-yl)-5-(cyclopropylmethoxy)-1H-pyrrolo[2,3-b]pyridine] |
| 1 to 10 µM | 0.0001 to 1 µM | 10 to 200 µM | O=S(=O)(C1CC1)N1CCC=C(c2cnc3[nH]cc(-c4ccc5[nH]cnc5c4)c3c2)C1 [P-032, 3-(1H-benzimidazol-5-yl)-5-(1-cyclopropylsulfonyl-3,6-dihydro-2H-pyridin-5-yl)-1H-pyrrolo[2,3-b]pyridine] |
| 0.0001 to 1 µM | 0.0001 to 1 µM | 1 to 10 µM | COc1cnc2[nH]cc(-c3ccc4[nH]cnc4c3)c2c1 [P-002, 3-(1H-benzimidazol-5-yl)-5-methoxy-1H-pyrrolo[2,3-b]pyridine] |
| 0.0001 to 1 µM | 0.0001 to 1 µM | 1 to 10 µM | COc1ccc(-c2cnc3[nH]cc(-c4ccc5ncn(C)c5c4)c3c2)cn1 [P-040, 5-(6-methoxy-3-pyridyl)-3-(3-methylbenzimidazol-5-yl)-1H-pyrrolo[2,3-b]pyridine] |

Second part, the compound before the results:

| Structure (SMILES) | IC50 (FLT3-D835Y) | IC50 (FLT3-ITD) | IC50 (c-Kit) |
| --- | --- | --- | --- |
| CC(C)(C)n1cnc2ccc(-c3c[nH]c4ncc(C5=CCN(C(=O)C6CC6)C5)cc34)cc21 [P-134, [3-[3-(3-tert-butylbenzimidazol-5-yl)-1H-pyrrolo[2,3-b]pyridin-5-yl]-2,5-dihydropyrrol-1-yl]-cyclopropyl-methanone] | 0.0001 to 1 µM | 0.0001 to 1 µM | 10 to 200 µM |
| Cn1cnc2ccc(-c3c[nH]c4ncc(-c5cccc(OC(F)(F)F)c5)cc34)cc21 [P-131, 1-methyl-6-[5-[3-(trifluoromethoxy)phenyl]-1H-pyrrolo[2,3-b]pyridin-3-yl]benzimidazole] | 0.0001 to 1 µM | 0.0001 to 1 µM | 10 to 200 µM |
| COc1cnc2[nH]cc(-c3cnc4c(c3)ncn4C)c2c1 [P-055, 6-(5-methoxy-1H-pyrrolo[2,3-b]pyridin-3-yl)-3-methyl-imidazo[4,5-b]pyridine] | 10 to 200 µM | 0.0001 to 1 µM | 10 to 200 µM |
| CCS(=O)(=O)Nc1cccc(-c2cnc3[nH]cc(-c4ccc5ncn(C)c5c4)c3c2)c1 [P-094, N-[3-[3-(3-methylbenzimidazol-5-yl)-1H-pyrrolo[2,3-b]pyridin-5-yl]phenyl]ethanesulfonamide] | 0.0001 to 1 µM | 0.0001 to 1 µM | 1 to 10 µM |
| Cn1cnc2ccc(-c3c[nH]c4ncc(-c5cccc(NS(C)(=O)=O)c5)cc34)cc21 [P-037, N-[3-[3-(3-methylbenzimidazol-5-yl)-1H-pyrrolo[2,3-b]pyridin-5-yl]phenyl]methanesulfonamide] | 0.0001 to 1 µM | 0.0001 to 1 µM | 10 to 200 µM |
| CNS(=O)(=O)c1cccc(-c2cnc3[nH]cc(-c4ccc5ncn(C)c5c4)c3c2)c1 [P-046, N-methyl-3-[3-(3-methylbenzimidazol-5-yl)-1H-pyrrolo[2,3-b]pyridin-5-yl]benzenesulfonamide] | 0.0001 to 1 µM | 0.0001 to 1 µM | 10 to 200 µM |
| Cn1cc(-c2ccc(-c3cnc4[nH]cc(-c5ccc6ncn(C(C)(C)C)c6c5)c4n3)cc2)cn1 [P-306, 7-(3-tert-butylbenzimidazol-5-yl)-2-[4-(1-methylpyrazol-4-yl)phenyl]-5H-pyrrolo[2,3-b]pyrazine] | 0.0001 to 1 µM | 0.0001 to 1 µM | 1 to 10 µM |
| Cn1cnc2ccc(-c3c[nH]c4ncc(F)cc34)cc21 [P-028, 5-fluoro-3-(3-methylbenzimidazol-5-yl)-1H-pyrrolo[2,3-b]pyridine] | 0.0001 to 1 µM | 0.0001 to 1 µM | 10 to 200 µM |
| CS(=O)(=O)Nc1cccc(-c2cnc3[nH]cc(-c4ccc5c(c4)OCO5)c3n2)c1 [P-058, N-[3-[7-(1,3-benzodioxol-5-yl)-5H-pyrrolo[2,3-b]pyrazin-2-yl]phenyl]methanesulfonamide] | 0.0001 to 1 µM | 0.0001 to 1 µM | 10 to 200 µM |
| Cn1cnc2ccc(-c3c[nH]c4ncc(-c5cccc(S(=O)(=O)N6CCCC6)c5)cc34)cc21 [P-122, 1-methyl-6-[5-(3-pyrrolidin-1-ylsulfonylphenyl)-1H-pyrrolo[2,3-b]pyridin-3-yl]benzimidazole] | 0.0001 to 1 µM | 0.0001 to 1 µM | 1 to 10 µM |
| Cc1cnc2[nH]cc(-c3ccc4ncn(C)c4c3)c2c1 [P-018, 1-methyl-6-(5-methyl-1H-pyrrolo[2,3-b]pyridin-3-yl)benzimidazole] | 0.0001 to 1 µM | 0.0001 to 1 µM | 1 to 10 µM |
| COc1cnc2[nH]cc(-c3ccc4ncn(C5CC5)c4c3)c2c1 [P-060, 1-cyclopropyl-6-(5-methoxy-1H-pyrrolo[2,3-b]pyridin-3-yl)benzimidazole] | 0.0001 to 1 µM | 0.0001 to 1 µM | 10 to 200 µM |
| c1cnc2[nH]cc(-c3ccc4ncsc4c3)c2c1 [P-030, 6-(1H-pyrrolo[2,3-b]pyridin-3-yl)-1,3-benzothiazole] | 0.0001 to 1 µM | 0.0001 to 1 µM | 1 to 10 µM |
